{"source": "patent US6037351A", "about": "“Method of inhibiting hepatitis B virus” (priority 1996, dated 2000)", "key": {"HIV": {"test_system": "HIV", "settings": "read-out: EC50 for inhibition of HIV replication; cited from earlier work"}, "MHBs (PreS2) antigen": {"test_system": "MHBs (PreS2) antigen", "test": "ELISA of MHBs (PreS2) antigen in unfractionated culture medium of 2.2.15 cells", "format": "cell-based, HBV", "experimental": "(§1) FIG. 3D: Histogram of the area under the averaged peaks of the densitometric tracing of the gel in FIG. 3B. […] Equal volumes of the indicated samples were tested for HBV envelope antigens using the enzyme-linked imminosorbent assay (ELISA) method. Samples of unfractionated medium (FIGS. 4A, 4B and 4C) or partially purified virus (FIGS. 4D, 4E and 4F) from 3-day cultures were tested for HBV SHBs (\"S) (FIGS. 4A and 4D), LHBs: \"PreS1\" (FIGS. 4B and 4E) or MHBs \"PreS2\" (FIGS. 4C and 4F) epitopes. Cultures were maintained in the indicated concentrations of NBDNJ, expressed in millimolar units and shown along the X axis.\nDetection of HBV proteins by the Enzyme Linked Immunoabsorbant assay (ELISA).\nMonoclonal antibodies used herein are well-known and are described by Heerman et al., J. Virol. 52, 396-402 (1984), for antibody to PreS1 (MA 18/7); Heerman et al., Intervirology 28: 14-21 (1987), for antibody to PreS2 (Q 19/10), see also Gerlich and Bruss, Molecular Biology of Hepatitis B Virus, ed. A. McLachlan, CRC Press, 109-144 (1992), and in Hepatitis B Vaccines in Clinical Practice, ed. R. W. Ellis, Marcel Dekker, Inc., pp. 41-82 (1992); and Heerman et al., in Viral Hepatitis and Liver Disease, ed. Zuckermann, A. R. Liss, 697-701 (1988), for antibody to S (C20-2).].\nSamples were incubated in microtiter wells coated (overnight at 4° C.) with monoclonal antibodies specific for the LHBs, MHBs or SHBs epitopes and blocked with 1% BSA in PBS. After incubation with virus samples in for 1 hour (37° C.), plates were washed 4 times with PBS/0.1% Tween 20 non-ionic detergent.\nBound antigen was detected by incubation with peroxidase conjugated goat anti-HBs antibody (Behring) followed by development in orthophenylenediamine (0.33 mg/ml PBS-peroxide solution). Optical densities were read in a Behring plate reader. Tests on purified virus and total medium were conducted over a series of sample dilutions to insure proper quantification.\nTo distinguish between these possibilities, the amount and nature of envelope antigens in the culture medium was determined by both ELISA and Western analysis. […]"}, "hepatitis B virus (HBV)": {"test_system": "hepatitis B virus (HBV)", "test": "Intracellular HBV DNA in infected HepG2 cells (PCR, densitometry)", "format": "cell-based, HBV in human hepatoma HepG2 cells", "settings": "HepG2 cells infected with HBV and post treated with NBDNJ, vs untreated", "experimental": "FIG. 3B and FIG. 3D: DNA from the intracellular compartment of the cultures infected in FIG. 3A with HBV and treated with NBDNJ were amplified by PCR. The lanes contain amplified DNA from the following samples:\nas §1, with “Cultures were maintained in the indicated concentrations of NBDNJ, expressed in millimolar units and shown along the X axis.” left out\nProgeny virus in the medium of HepG2 cells infected with serum derived HBV was detected by precipitating medium with monoclonal antibody to the PreS2 epitopes. […]\nSince the culture medium of HBV infected HepG2 cells treated with NBDNJ was similar to 2.2.15 cells, with respect to the reduced amount of virion associated DNA, it was of interest to know if there was a concomitant increase in viral DNA within the treated cells. […] Products of the reaction were resolved by agarose gel electrophoresis and the ethidium bromide stained gel (FIG. 3B) was analyzed by densitometry (FIG. 3D)."}}, "data": [{"smiles": "CCCCN1C[C@H](O)[C@@H](O)[C@H](O)[C@H]1CO", "note": "[NBDNJ, N-butyl-1,5-dideoxy-1,5-imino-D-glucitol]", "values": [{"measurement": "EC50", "setting": "HIV", "result": 43, "unit": "µM"}, {"measurement": "decrease in the amount of MHBs antigen in medium (in words)", "setting": "MHBs (PreS2) antigen; 1000 μg/ml NBDNJ, 2.2.15 cells", "result": "two-fold decrease"}, {"measurement": "decrease in total amount of MHBs (PreS2) antigen in medium", "setting": "MHBs (PreS2) antigen; highest NBDNJ concentration, 4.5 mM or approximately 1000 μg/ml", "result": "approximately 2.5 fold"}, {"measurement": "total amount of MHBs (PreS2) antigen in medium (in words)", "setting": "MHBs (PreS2) antigen; unfractionated medium, 2.2.15 cells", "result": "modest, dose-dependentdecrease"}, {"measurement": "accumulation of intracellular viral DNA", "setting": "hepatitis B virus (HBV)", "result": "accumulate greater amounts of viral DNA"}]}]}
